Assay results taken from a compilation of properties of binary mixtures (doi:10.1016/j.molliq.2017.03.027).

Assay: xn = mol fraction of the nth substance listed
Conditions: 100 kPa

CO + CCCC[n+]1ccn(C)c1.O=S(=O)([N-]S(=O)(=O)C(F)(F)F)C(F)(F)F
x1 = 1
Conditions | speed of sound [m/s] | viscosity [mPa·s]
298.15 K | 1103.3 | 0.55
303.15 K | 1086.9 | 0.51
308.15 K | 1070.6 | 0.48
313.15 K | 1054.5 | 0.45
318.15 K | 1038.5 | 0.42
323.15 K | 1022.5 | 0.41

CS(C)=O + CCCC[n+]1ccn(C)c1.O=S(=O)([N-]S(=O)(=O)C(F)(F)F)C(F)(F)F
Conditions | speed of sound [m/s] | viscosity [mPa·s]
298.15 K, x1 = 0.0951 | 1232.7 | 40.36
298.15 K, x1 = 0.2074 | 1239.8 | 33.72
298.15 K, x1 = 0.2885 | 1246 | 28.98
298.15 K, x1 = 0.4003 | 1257.9 | 22.18
298.15 K, x1 = 0.5026 | 1269.8 | 17.18
298.15 K, x1 = 0.7066 | 1299.3 | 8.91
298.15 K, x1 = 0.8039 | 1329 | 5.97
298.15 K, x1 = 0.9012 | 1384.8 | 3.51
298.15 K, x1 = 1 | 1490.5 | 2.03
303.15 K, x1 = 0.0951 | 1221.2 | 32.94
303.15 K, x1 = 0.2074 | 1228.1 | 27.62
303.15 K, x1 = 0.4003 | 1245.8 | 18.3
303.15 K, x1 = 0.5903 | 1267.6 | 11.04
303.15 K, x1 = 0.7066 | 1286.2 | 8.01
303.15 K, x1 = 0.8039 | 1315.2 | 5.17
303.15 K, x1 = 0.9012 | 1369.9 | 3.15
303.15 K, x1 = 1 | 1473.6 | 1.84
308.15 K, x1 = 0.0951 | 1209.8 | 26.98
308.15 K, x1 = 0.2074 | 1216.8 | 22.9
308.15 K, x1 = 0.2885 | 1222.7 | 19.59
308.15 K, x1 = 0.4003 | 1233.9 | 15.42
308.15 K, x1 = 0.5026 | 1245.1 | 11.71
308.15 K, x1 = 0.7066 | 1273.2 | 6.73
308.15 K, x1 = 0.8039 | 1301.4 | 4.62
308.15 K, x1 = 0.9012 | 1355 | 2.84
313.15 K, x1 = 0.2885 | 1211.1 | 17.04
313.15 K, x1 = 0.4003 | 1221.8 | 13.35
313.15 K, x1 = 0.5026 | 1232.9 | 10.62
313.15 K, x1 = 0.7066 | 1260.2 | 5.96
313.15 K, x1 = 0.8039 | 1287.7 | 4.17
313.15 K, x1 = 0.9012 | 1340.2 | 2.57
318.15 K, x1 = 0.0951 | 1187.5 | 19.53
318.15 K, x1 = 0.2074 | 1194.2 | 16.67
318.15 K, x1 = 0.2885 | 1199.7 | 14.57
318.15 K, x1 = 0.4003 | 1210.1 | 11.47
318.15 K, x1 = 0.5026 | 1220.8 | 8.84
318.15 K, x1 = 0.5903 | 1229.8 | 7.4
318.15 K, x1 = 0.7066 | 1247.2 | 5.63
318.15 K, x1 = 0.8039 | 1274.4 | 3.71
318.15 K, x1 = 0.9012 | 1325.4 | 2.33
318.15 K, x1 = 1 | 1423.3 | 1.41
323.15 K, x1 = 0.0951 | 1176.3 | 16.81
323.15 K, x1 = 0.2074 | 1182.9 | 14.37
323.15 K, x1 = 0.2885 | 1188.1 | 12.56
323.15 K, x1 = 0.4003 | 1198.2 | 9.96
323.15 K, x1 = 0.5026 | 1208.5 | 7.69
323.15 K, x1 = 0.5903 | 1217.3 | 6.39
323.15 K, x1 = 0.7066 | 1233.9 | 5.01
323.15 K, x1 = 0.8039 | 1260.4 | 3.32
323.15 K, x1 = 1 | 1406.7 | 1.3

CCCC[n+]1ccn(C)c1.O=S(=O)([N-]S(=O)(=O)C(F)(F)F)C(F)(F)F + CO
Conditions | speed of sound [m/s] | viscosity [mPa·s]
298.15 K, x2 = 0 | 1227.5 | 49.6
298.15 K, x2 = 0.2068 | 1218.3 | 34.37
298.15 K, x2 = 0.295 | 1213.6 | 28.65
298.15 K, x2 = 0.4004 | 1208.6 | 22.3
298.15 K, x2 = 0.4923 | 1202 | 17.55
298.15 K, x2 = 0.5956 | 1191.3 | 12.55
298.15 K, x2 = 0.7947 | 1159.2 | 5.11
298.15 K, x2 = 0.8978 | 1134.4 | 1.7
303.15 K, x2 = 0.2068 | 1206.7 | 28.28
303.15 K, x2 = 0.295 | 1202.3 | 23.6
303.15 K, x2 = 0.4923 | 1190.3 | 14.6
303.15 K, x2 = 0.5956 | 1180 | 10.52
303.15 K, x2 = 0.7056 | 1164.1 | 6.79
303.15 K, x2 = 0.7947 | 1146.7 | 4.38
303.15 K, x2 = 0.8978 | 1121.2 | 1.55
308.15 K, x2 = 0 | 1205.5 | 33.25
308.15 K, x2 = 0.0986 | 1201.6 | 28.87
308.15 K, x2 = 0.2068 | 1196 | 23.61
308.15 K, x2 = 0.295 | 1192.5 | 19.98
308.15 K, x2 = 0.4004 | 1186.7 | 15.74
308.15 K, x2 = 0.4923 | 1179.1 | 12.56
308.15 K, x2 = 0.5956 | 1169.2 | 9.2
308.15 K, x2 = 0.7056 | 1152.6 | 5.97
308.15 K, x2 = 0.7947 | 1134.5 | 3.97
308.15 K, x2 = 0.8978 | 1108.1 | 1.42
313.15 K, x2 = 0 | 1193.5 | 28
313.15 K, x2 = 0.0986 | 1190.8 | 24.53
313.15 K, x2 = 0.2068 | 1184.4 | 20.1
313.15 K, x2 = 0.295 | 1180.8 | 17.14
313.15 K, x2 = 0.4004 | 1175.5 | 13.55
313.15 K, x2 = 0.4923 | 1168 | 10.82
313.15 K, x2 = 0.5956 | 1158.3 | 8.03
313.15 K, x2 = 0.7056 | 1141.2 | 5.28
313.15 K, x2 = 0.7947 | 1122.6 | 3.54
313.15 K, x2 = 0.8978 | 1095.2 | 1.31
318.15 K, x2 = 0 | 1183.5 | 23.75
318.15 K, x2 = 0.2068 | 1173.6 | 17.22
318.15 K, x2 = 0.4004 | 1164.9 | 11.7
318.15 K, x2 = 0.5956 | 1147.7 | 7.01
318.15 K, x2 = 0.7947 | 1110.5 | 3.13
318.15 K, x2 = 0.8978 | 1082.2 | 1.21
323.15 K, x2 = 0 | 1171.3 | 20.39
323.15 K, x2 = 0.0986 | 1169.3 | 18.1
323.15 K, x2 = 0.2068 | 1162.4 | 14.96
323.15 K, x2 = 0.295 | 1160 | 12.89
323.15 K, x2 = 0.4004 | 1154.4 | 10.31
323.15 K, x2 = 0.4923 | 1146.6 | 8.33
323.15 K, x2 = 0.5956 | 1137.2 | 6.21
323.15 K, x2 = 0.7947 | 1098.7 | 2.81

CCCC[n+]1ccn(C)c1.O=S(=O)([N-]S(=O)(=O)C(F)(F)F)C(F)(F)F + CS(C)=O
x2 = 0
Conditions | speed of sound [m/s] | viscosity [mPa·s]
298.15 K | 1227.5 | 49.6
308.15 K | 1205.5 | 33.25
313.15 K | 1193.5 | 28
323.15 K | 1171.3 | 20.39
